Several values for one entry are separate records, joined by “and”; a condition that tells them apart may be missing. Equal values may be shown once.
What was measured:
MUC3 mRNA = MUC3 mRNA expression in intestinal epithelial cell culture assay; format: cell-based, human; settings: for MUC3 mRNA/28s RNA ratio, Mean: peptide comparison, Control = 100.000; for MUC3 mRNA/28s RNA ratio, Mean / MUC3 mRNA stimulation versus control (in words): 30 minutes at 37° C. at 50 μg/ml; for MUC3 mRNA stimulation versus control (in words): p<0.008
Source text: Different mucin genes have been identified and to date, twelve human mucin genes have been identified. However, MUC3 mucin is the predominant intestinal mucin. It has previously been shown that the MUC3 mucins are effective in preventing the adherence of enteropathogenic Escherichia coli (EPEC) to intestinal epithelial cells. […] It is also well known that breast-feeding infants are far less susceptible to infectious diarrhea than formula fed infants. There are a number of theories why this is so, but it is hypothesized that milk-associated amyloid (colostrum SAA) may be an important inducer of MUC3 gene expression. Applicant has evaluated MUC3 mRNA expression using an in vitro human cell culture assay system. In this system, intestinal cells incubated with the N-terminal peptide sequence of colostrum SAA have shown increased MUC3 mRNA expression as compared to control cells grown without the addition of colostrum SAA to the cell culture medium. To further explore this finding, Applicant has evaluated the functional specificity of the N-terminal peptide sequence of colostrum SAA by evaluation of MUC3 expression in the same in vitro assay using colostrum SAA N-terminal peptide sequences that have been randomly scrambled and a colostrum SAA peptide sequence downstream of the N-terminal sequence. If the expression of MUC3 is increased then intestinal cells grown in the presence of colostrum SAA should have a greater capacity to inhibit adherence of bacterial pathogens. This will be studied using EPEC in an in vitro assay system pre-incubated with colostrum SAA in the cell culture medium. Enteropathogenic E. coli are non-invasive, non-toxin producing pathogens that have been recognized as a significant cause of diarrhea in third world countries and in day care settings in developed countries. Future studies will evaluate the benefits of colostrum SAA in in vivo studies as well as characterized animal equivalent to human EPEC. Colostrum associated SAA provides a means to naturally upregulate the innate protective mechanisms of the human intestine and would provide a novel form of therapy to a common problem that occurs all too often in the third world leads to death of infants and in the developed world countries and leads to significant morbidity and cost. Furthermore, prevention of intestinal infections for traveler's or those having to live in conditions with altered sanitary practices would also reduce morbidity. Thus, this therapy offers an effective, natural, non-drug/chemical therapy.
(§1) These four peptides were used in a cell culture assay designed to evaluate them for their properties of inducing mucin (MUC) mRNA production, either MUC3 or MUC2 according to the methods described by Mack et al. (Biochem. Biophys. Res. Commun. 199: 1012–1018, 1994 and Am J Physiol. Vol. 4, part 1, pg. G841–950, 1999).
N-Terminal Peptide Titration and MUC3 mRNA Expression. Intestinal epithelial cells, Mack et al. 1994, 1999, were exposed to the N-terminal 10 amino acid bovine colostrum-SAA peptide (SEQ ID NO:30) at various concentrations for 30 minutes incubation at […]. The cells were incubated an additional hour following replacement of the test medium with fresh medium without peptide and then the total cellular niRNA isolated and analyzed for MUC3 specific mRNA. […] The optimum concentration was 50 μg/ml medium (see FIG. 7).
MUC3 Stimulation. MUC3 stimulating activity of the N-terminal 10 amino acid bovine colostrum-SAA peptide was compared to the activity of the “Limited Scramble”, the “Total Scramble” and “C-Terminal peptides”. Optimum time and temperature of incubation and concentration of peptides was for 30 minutes at 37° C. at 50 μg/ml respectively.

MUC2 mRNA = MUC2 mRNA expression in intestinal epithelial cells cultured under conditions favoring MUC2; format: cell-based, human; settings: for MUC2 mRNA/28s RNA ratio, Mean: peptide comparison, conditions optimized for MUC3 stimulation, Control = 100.000
Source text: as §1
MUC2 mRNA Stimulation. To address whether the N-Terminal 10 amino acid bovine colostrum-SAA peptide would stimulate mRNA synthesis for MUC2 production, intestinal epithelial cells were cultured under conditions favoring MUC2 expression rather than MUC3. All peptides were used at concentrations and conditions that were previously optimized for MUC3 stimulation. […] Additionally, conditions were changed to 2× the optimum MUC3 incubation time (1 hr). […] The evidence strongly indicates specificity of function in stimulating the production of a mucin produced mainly in the small intestine (MUC3) over one produced primarily in the large intestine (MUC2) (see FIG. 9).

[1] = Isoelectric focusing (IEF) and 2-D gel of SAA preparations; format: physicochemical; settings: IEF on IPG strips, anti-SAA monoclonal antibody stain
Source text: Isoelectric Focusing (IEF) of SAA from serum, colostrum and cell culture fluid. The PROTEIN IEF Cell (BioRad) was used for the isoelectric focusing of the various SAA preparations. Ready Strip IPG Strips (BioRad Laboratories) with a pH range of 3–10 were used for the IEF. The second dimension (2-D) of the protein analysis was done by subjecting the IPG strips to 12% SDS-PAGE gel and electroblotting onto a PVDF membrane. The strips and blots were done in duplicate so that one of the blots could be stained with a protein stain, Coomassie Brilliant Blue, (CBB) and the other stained with the anti-SAA monoclonal antibody for the identification of the SAA protein isoforms. The samples also contained internal IEF standards (BioRad Laboratories) so that isoelectric point (pI) of each SAA isoforms could be determined. By comparing the antibody stained spots to the spots of the standards stained with CBB the apparent pI of the SAA isoforms could be determined. […]
The proteins subjected to the IEF and 2-D analysis were either affinity purified as described for the cell culture fluid or, in the case of the serum only semi-purified by hydrophobic chromatography. SAA is a highly hydrophobic molecule and will bind readily to Octyl Sepharose beads and then under the appropriate conditions can be eluted off the matrix. […]

[2] = tested on: Bovine MAC-T mammary gland epithelial cells; experiment: Colostrum-SAA production by MAC-T cells stimulated with prolactin (ELISA); format: cell-based
Procedure: Bovine MAC-T mammary gland epithelial cells were obtained from ATCC (CRL-10274) and cultured according to recommended conditions (Turner, J D and Huynh H. Immortalized bovine mammary epithelial cell line. U.S. Pat. No. 5,227,301 dated Jul. 13, 1993). MAC-T cells were cultured on Dulbecco's Modified Eagles Media (DMEM) supplemented with 10% Fetal Calf Serum (FCS), 5 μg/ml insulin, 1 μg/ml hydrocortisone and fungizone. Cells were incubated at 37° C. with 5% CO2. For colostrum-SAA production the cells were seeded onto type I Collagen coated plates. After 14 hours of incubation, the cells were washed twice with Dulbecco's phosphate buffered saline (DPBS) and incubated in media (DMEM, 5 μg/ml insulin, 1 μg/ml hydrocortisone and 2.5% FCS) supplemented with prolactin from sheep pituitary gland (5 μg/ml) for the stimulation of colostrum-SAA production. Approximately one half of the media was replaced daily with fresh prolactin supplemented media. Standard ELISA for the quantitation of SAA (FIG. 3) was used to assay aliquots of the growth media collected on the different days for the presence of colostrum-SAA.
Cells were kept in culture for 41 days in media supplemented with prolactin. Levels of colostrum-SAA production reached a maximum of almost 3000 ng/ml.

In the case of “DAAQRGPQQA (peptide of residues in C-terminal region of bovine SAA used as experimental control) [control 10 amino acid peptide, first 7 residues from the C-terminal region of bovine SAA, reference compound]”, the “MUC3 mRNA/28s RNA ratio, Mean” value (MUC3 mRNA) is reported as 111.333 and the “MUC2 mRNA/28s RNA ratio, Mean” value (MUC2 mRNA) is reported as 67.500.

For “GKFAWEGMTL (randomized experimental control sequence) [Total Scramble, control peptide with the amino acids of the entire N-Terminal peptide in random order, reference compound]”, the “MUC3 mRNA/28s RNA ratio, Mean” value (MUC3 mRNA) was 109.333 and the “MUC2 mRNA/28s RNA ratio, Mean” value (MUC2 mRNA) was 65.833.

For “MWGLTKFEAG (limited scramble for experiment) [N-terminal peptide in which the four TFLK amino acids were scrambled in their order, reference compound]”, the “MUC3 mRNA stimulation versus control (in words)” value (MUC3 mRNA) was “lack of stimulation”, the “MUC3 mRNA/28s RNA ratio, Mean” value (MUC3 mRNA) was 95.000 and the “MUC2 mRNA/28s RNA ratio, Mean” value (MUC2 mRNA) was 87.167.

In the case of “MWGTFLKEAG (N-terminal region of bovine colostrum SAA) [10 amino acid N-terminal portion of mature bovine colostrum-SAA containing the conserved TFLK]”, the “time in which intestinal mucin genes are turned on” value (MUC3 mRNA) is reported as at most 30 min, the “MUC3 mRNA stimulation versus control (in words)” value (MUC3 mRNA) is reported as “stimulated MUC3 mRNA statistically significantly over the control values” and the “optimum concentration for MUC3 mRNA stimulation” value (MUC3 mRNA; 30 minutes incubation) is reported as 50 μg/ml medium. For the same molecule, the “MUC3 mRNA/28s RNA ratio, Mean” value (MUC3 mRNA) was 174.833, the “MUC2 mRNA increase over control (in words)” value (MUC2 mRNA; 100 and 500 μg/ml, incubation time 1 hr) was “None of these changes resulted in MUC2 mRNA increase over control values” and the “MUC2 mRNA stimulation versus control (in words)” value (MUC2 mRNA; concentrations and conditions optimized for MUC3 stimulation) was “the values were not significantly different”. For the same molecule, the “MUC2 mRNA/28s RNA ratio, Mean” value (MUC2 mRNA) was 101.167.

B1: SAA from the serum: SAA semi-purified from bovine serum, three isoforms staining with anti-SAA monoclonal antibody (protein)
chain: QWMSFFGEAYEGAKDMWRAYSDMREANYKGADKYFHARGNYDAAQRGPGGAWAAKVISDARENIQRFTDPLFKGTTSGQGQEDSRADQAANEWGRSGKDPNHFRPAGLPDKY
In the case of B1, the “apparent pI” value [1] is reported as ~7.0 and ~5.8 and ~5.5.

B2: colostrum-SAA: unique isoform of serum amyloid A found in bovine colostrum and MAC-T cell culture fluid (protein)
chain: QRWGTFLKEAGQGAKDMWRAYQDMKEANYRGADKYFHARGNYDAARRGPGGAWAAKVISNARETIQGITDPLFKGMTRDQVREDSKADQFANEWGRSGKDPNHFRPAGLPDKY
For B2, the “apparent pI” value ([1]; listed as SAA purified from the culture fluid of MAC-T cells stimulated with LPS) was 9.4–9.6.

B3: prolactin: prolactin from sheep pituitary gland, used to stimulate colostrum-SAA production (protein, UniProt P01240 31-229, looked up)
Prolactin: TPVCPNGPGNCQVSLRDLFDRAVMVSHYIHNLSSEMFNEFDKRYAQGKGFITMALNSCHTSSLPTPEDKEQAQQTHHEVLMSLILGLLRSWNDPLYHLVTEVRGMKGVPDAILSRAIEIEEENKRLLEGMEMIFGQVIPGAKETEPYPVWSGLPSLQTKDEDARHSAFYNLLHCLRRDSSKIDTYLKLLNCRIIYNNNC
With B3 the “maximum level of colostrum-SAA production” value ([2]; prolactin 5 μg/ml in media, 41 days in culture) was about 3000 ng/mL and the “detection of colostrum-SAA in media (in words)” value ([2]; prolactin stimulation, eight days) was “Measurable quantities of colostrum-SAA could be detected by day two”.

— US7214512B2, “Genomic mammary Amyloid a sequence” (The Board of Regents of the University of Nebraska, priority 1999, dated 2007)
